Several values for one entry are separate records, joined by “and”; a condition that tells them apart may be missing. Equal values may be shown once. Entries after “also recorded” stand apart in the source; their conditions may differ. Where no end group is shown, it is not given here.
Experiments:
[1] = molecular target: T1, refolded pepsin (Rp) (Sus scrofa, UniProt P00791); assay: PS-catalyzed folding of Rp to Np (recovery of Np activity); format: biochemical, porcine; settings: for k f (PS-catalyzed folding rate constant): 1 µM Rp, 30 µM PS, pH 5.3 (20 mM acetic acid/NaOH, 100 mM NaCl), Np activity assayed at pH 1.2, 25°C with KPAEFF(NO2)AL, monoexponential fit, mean ± SD from non-linear curve fitting, 3-5 measurements; for k f (PS-catalyzed folding rate constant) / ΔΔG^‡ (change in folding activation energy upon mutation): 15°C; for ΔΔG^‡ (change in folding activation energy upon mutation): from k f, pH 5.3, relative to WT, ± SD by propagation of errors; for effect on rate of PS-catalyzed folding (in words): pH 5.3, 15°C, compared with PSwt
T1 construct: Only the R13 and K36 side-chains of the PS form hydrogen bonds with the mature pepsin domain; purchased Sigma (St. Louis, MO, USA)
Method: PS-catalyzed folding of Rp to Np
PS-catalyzed folding was carried out by combining 1 µM Rp and 30 µM PS, in a volume of 100 µl, at pH 5.3 (20 mM acetic acid/NaOH with 100 mM NaCl) and 15°C. Aliquots were taken at several time intervals, diluted 20-fold in 50 mM phosphoric acid buffer, pH 1.2, incubated for 5 min at 25°C and assayed for Np activity using the KPAEFF(NO2)AL substrate. The recovery of Np activity with time, t, was fit with a monoexponential function (y = a – bexp(–k f t)) to obtain the PS-catalyzed folding rate constant, k f. Under these conditions, PS binding to Rp reached equilibrium within the dead-time of mixing (<8 sec), as judged by Trp-fluorescence.
(§1) The change in stability of the folding transition state upon mutation was calculated using [drawing 3] (3) where k f, wt and k f, mut are the PS-catalyzed folding rate constants of the wild-type and mutant PS peptides. The change in equilibrium stability of PS-Np relative to PS-Rp upon mutation of the PS (ΔΔGPS(Np-Rp)) was determined as the difference between the changes in binding energies, using [drawing 4] (4) and [drawing 5] (5)
Temperature dependence of PS-catalyzed folding
PS-catalyzed folding could be measured only up to 15 °C for PSwt, as the reaction was too fast at higher temperatures. […] Given the linear temperature dependence it could be reasonably assumed that changes in activation energies (mutant – wild-type) would be unchanged from 15 °C to 20 °C, and so could be compared directly with changes in binding energies (wild-type – mutant) that were determined at 20 °C.

[2] = molecular target: T1, refolded pepsin (Rp); assay: PS binding to Rp (Trp-fluorescence); parameters: species or system porcine; settings: for Kd: 0.6-1.2 µM Rp, 20 mM acetic acid/NaOH pH 5.3 without added NaCl, ≥10 min, Trp-fluorescence ex 295 nm, em 315 nm, mean ± SD from non-linear curve fitting, 3-5 measurements, read-out: K d (PS-Rp dissociation constant); for Kd / ΔΔGPS-Rp (change in PS-Rp binding energy upon mutation): 20°C; for ΔΔGPS-Rp (change in PS-Rp binding energy upon mutation): from K d, pH 5.3, relative to WT, ± SD by propagation of errors
Method: The change in intrinsic tryptophan fluorescence of pepsin was used to measure the binding of PS to Rp and to determine the dissociation constant, K d. Rp solutions were diluted to between 0.6 and 1.2 µM in 20 mM acetic acid/NaOH buffer, pH 5.3, and mixed with various amounts of PS. After incubating the samples at 20°C for ≥10 minutes, the intrinsic tryptophan fluorescence was measured using a PTI spectrofluorophotometer (Photon Technology International, Inc., Birmingham NJ, USA), with excitation at 295 nm and emission measured at 315 nm. The change in fluorescence, ΔF i, at each PS concentration, [PS], was normalized relative to the maximum change, ΔF max, and fit according to [drawing 1] (1) where [Rp] is the total concentration of pepsin.
PS binding to Rp was measured in buffer without added 100 mM NaCl in order to obtain more accurate measurements of K d, owing to a larger change in signal in the absence of salt. Additionally, without added 100 mM NaCl it was possible to isolate the PS-Rp binding step from the catalyzed folding step thereby improving the determination of K d.
as §1
(§2) Here, ΔΔGbind refers to either ΔΔGPS-Rp, determined from K d values, or ΔΔGPS-Np, determined from K i values. The Φ-value for each mutant corresponds to eq 3 divided by eq 5. Additional details are included in the supporting information section (Text S1).

[3] = molecular target: T2, native pepsin (Np) (Sus scrofa, UniProt P00791); assay: PS binding to Np (competitive inhibition of KPAEFF(NO2)AL hydrolysis); format: biochemical, porcine; settings: for Ki: 10 nM Np, 20 mM acetic acid/NaOH pH 5.3, 100 mM NaCl, 5 min incubation, substrate KPAEFF(NO2)AL 0.1 mM, absorbance 300 nm, competitive model, mean ± SD from non-linear curve fitting, 3-5 measurements, read-out: K i (PS-Np inhibition constant); for Ki / ΔΔGPS-Np (change in PS-Np binding energy upon mutation): 20°C; for ΔΔGPS-Np (change in PS-Np binding energy upon mutation): from K i, pH 5.3, relative to WT, ± SD by propagation of errors; for effect on affinity for Np / PS-Np stability (in words): pH 5.3, 20°C, PS inhibition of Np, compared with PSwt
T2 construct: Only the R13 and K36 side-chains of the PS form hydrogen bonds with the mature pepsin domain; purchased Sigma (St. Louis, MO, USA)
Method: PS binding to Np was determined by using the PS as a competitive inhibitor and measuring the inhibition constant, K i. Hydrolysis of the KPAEFF(NO2)AL substrate was measured by following the decrease in absorbance at 300 nm using a Biochrom Ultrospec 3100pro UV-Vis spectrophotometer (Biochrom Ltd., Cambridge, England) in 20 mM acetic acid/NaOH buffer, pH 5.3, containing 100 mM NaCl. Np samples were diluted to 10 nM and incubated with PS for 5 min at 20°C and assayed for activity. The reaction rates were normalized to the activity in the absence of PS and the data fit using the competitive inhibitor form of the Michaelis-Menten equation [drawing 2] (2) where v0 is the initial reaction rate, V max is the maximum reaction rate, [S] is the substrate concentration (fixed at 0.1 mM), [I] is the inhibitor concentration, and K M is the Michaelis constant.
as §1, §2

[4] = tested on: pepsin (PS-Rp, PS-TS, PS-Np complexes); assay: Φ-value analysis from PS-catalyzed folding and binding constants; parameters: species or system porcine; settings: ± SD by propagation of errors; for Φ: ratio ΔΔG^‡/ΔΔGPS(Np-Rp); for ΔΔGPS(Np-Rp) (change in equilibrium stability of PS-Np relative to PS-Rp): ΔΔGPS-Np minus ΔΔGPS-Rp
Method: Calculation of Φ-values from PS-catalyzed folding and binding constants
as §1, §2
As outlined below, ∆Gbind values are used to calculate ∆∆GPS(Np-Rp), which is the change in the equilibrium free energy difference between PS-Np and PS-Rp upon mutation of the PS (for a diagram of the folding reaction, see Fig S1)
ΔΔGbind can refer to either ∆∆G^PS-Np(wt-mut) or ∆∆G^PS-Rp(wt-mut). Also, we can write ∆Gbind in terms of its components
where ∆GPS, ∆Gpepsin and ∆Gsolvent refer to the change in free energy of the PS, pepsin and the solvent upon PS binding to pepsin, respectively. Combining equations S1 and S2 gives
The contribution of each component to ∆∆Gbind will depend on the particular mutation (e.g., nature of substitution, location within folded structure, solvent accessibility). This is the general case for protein engineering analysis, in which the effects of mutations on changes in equilibrium and activation energies are the result of many individual interaction energy terms, including solvent terms, as previously explained in detail [Fersht AR, Matouschek A, Serrano L (1992) The folding of an enzyme I. Theory of protein engineering analysis of stability and pathway of protein folding. J Mol Biol 224: 771‒782]. Most importantly, there is no requirement to separate ΔΔGbind into its components in order to proceed with analysis as we are interested in the overall change in equilibrium stability of the PS-pepsin complex (∆∆GPS(Np-Rp))
This bimolecular approach to Φ-value analysis of protein folding is qualitatively identical to Φ-value analysis as it was originally applied to the study of enzyme catalysis. As outlined previously [Fersht AR], changes in the free energy of enzyme (E) binding to substrate (S) or product (P) are used to determine the change in free energy difference between E-P and E-S upon mutation, ∆∆G^EP-ES(wt-mut), where
As these are at the scale of global energy terms, equations S4 and S5 are equivalent and PS-catalyzed folding can be treated similarly as enzyme catalysis, in which the PS is the foldase and the denatured and natively folded protein are the substrate and product, respectively. However, protein folding reactions are more complicated to interpret at the level of individual interaction energy terms, which are more numerous [Fersht AR].
Changes in the binding energies between PS-Rp and PS-Np upon PS mutation can then be used to determine Φ-values with the following considerations:
1. Free PS is unstructured (see Fig S6), so Ala mutations are expected to have a negligible effect on the stability and conformation of free PS.
2. Changes in binding and folding upon mutation can be localized to the loss of interactions in the immediate vicinity of the truncation mutation (i.e., larger residue mutated to Ala), and not due to gross conformational changes of the PS or changes in the binding/folding mechanism (consider as strong evidence that all of the mutant PS’s readily catalyze folding to the native, active form).
3. Changes in PS-Rp and PS-Np binding energies upon mutation (∆∆G^PS-Np(wt-mut) and ∆∆G^PS-Rp(wt-mut)) are measured directly, while the change in the PS-TS binding energy (∆∆G^PS-TS(wt-mut)) is the sum of ∆∆G^PS-Rp(wt-mut) and ∆∆G^‡(wt-mut).
4. Φ-values are calculated using […]

[5] = tested on: pepsin; settings: native state relative to an intermediate state; ref [7]; cited from earlier work
From the text: General thermodynamic and kinetic features of protein folding are known, such as that the natively folded conformation of a protein is thermodynamically stabilized and that there is a relationship between topology and folding rate, which holds for both two-state and multi-state folding proteins, [3]. However, zymogen-derived proteins which require a prosegment (PS) domain to catalyze folding, such as the serine peptidases αLP [4], SGPB [5], and subtilisin [6], and the aspartic peptidase pepsin [7], deviate from the common thermodynamic and kinetic trends in protein foldin ... || Pepsin, which is derived from its zymogen pepsinogen, folds to a thermodynamically stable yet non-native form (termed refolded pepsin, Rp) upon removal from denaturing conditions. […] In the case of pepsin, Rp was characterized by a ΔG unf of 5.8 kcal/mol, a 10% increase in unordered secondary structure and identical tertiary structure to Np (both yield R g ∼20 Å).

[6] = pH 5.3, 20°C, compared with PSwt

T2 sequence (P00791 60-385): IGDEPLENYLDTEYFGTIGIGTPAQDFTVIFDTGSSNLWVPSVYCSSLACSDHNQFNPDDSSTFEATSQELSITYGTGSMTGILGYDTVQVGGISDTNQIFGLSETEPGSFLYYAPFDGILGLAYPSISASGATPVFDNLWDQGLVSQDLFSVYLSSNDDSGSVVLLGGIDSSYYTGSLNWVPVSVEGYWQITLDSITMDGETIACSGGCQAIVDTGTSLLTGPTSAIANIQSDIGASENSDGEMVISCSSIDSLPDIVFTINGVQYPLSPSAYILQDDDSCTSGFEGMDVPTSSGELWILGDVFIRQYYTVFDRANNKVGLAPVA
T1 sequence (P00791 60-385): as above

Row | Substance | k f (PS-catalyzed folding rate constant) [1] [min⁻¹] | ΔΔG^‡ (change in folding activation energy upon mutation) [1] [kcal/mol] | effect on rate of PS-catalyzed folding (in words) [1] | Kd [2] [nM] | ΔΔGPS-Rp (change in PS-Rp binding energy upon mutation) [2] [kcal/mol] | Ki [3] [nM] | ΔΔGPS-Np (change in PS-Np binding energy upon mutation) [3] [kcal/mol] | Φ [4] | ΔΔGPS(Np-Rp) (change in equilibrium stability of PS-Np relative to PS-Rp) [4] [kcal/mol] | effect on affinity for Rp / PS-Rp stability (in words) [2, 6] | reduction in binding affinity for Rp [2, 6] [fold] | effect on affinity for Np / PS-Np stability (in words) [3] | ΔG N-I [5] [kcal/mol]
1 | LVKVPAVRKKSLRQNLIKNGKLKDFLKTHKHNPASKYFPEAAAL [L6A] | 0.13 ± 0.01 | 1.36 ± 0.15 | slowest folding rate | 640 ± 90 | 0.43 ± 0.10 | 193 ± 38.8 | 0.64 ± 0.16 | – | – | – | – | – | –
2 | LVKVPLVRKKALRQNLIKNGKLKDFLKTHKHNPASKYFPEAAAL [S11A] | 0.18 ± 0.02 | 1.18 ± 0.15 | a burst-phase in the folding kinetics was noticeable | 680 ± 70 | 0.47 ± 0.08 | 270 ± 31.5 | 0.83 ± 0.12 | 3.2±1.4 | 0.36 ± 0.15 | – | – | – | –
3 | LVKVPLVRKKSLAQNLIKNGKLKDFLKTHKHNPASKYFPEAAAL [R13A] | 0.24 ± 0.02 | 1.02 ± 0.15 | – | 1960 ± 290 | 1.08 ± 0.10 | 382 ± 37.2 | 1.03 ± 0.12 | – | – | destabilized both the PS-Np and PS-Rp complexes | 7 | largest reduction in affinities for Np; also recorded: destabilized both the PS-Np and PS-Rp complexes | –
4 | LVKVPLVRKKSLRQNLIKNGKLKDALKTHKHNPASKYFPEAAAL [F25A] | 0.26 ± 0.04 | 0.96 ± 0.17 | – | 250 ± 30 | -0.12 ± 0.08 | 230 ± 29.1 | 0.74 ± 0.13 | 1.1 and 1.1±0.3 | 0.86 ± 0.15 | negligible effect on PS-Rp binding | – | – | –
5 | LVKVPLVRKKSLRQNLIKNGKLKDFLKTHKHNPASAYFPEAAAL [K36A] | 0.28 ± 0.03 | 0.94 ± 0.15 | – | 720 ± 140 | 0.50 ± 0.13 | 113 ± 20.3 | 0.33 ± 0.15 | – | – | nearly equally destabilizing to PS-Rp and PS-Np | – | nearly equally destabilizing to PS-Rp and PS-Np | –
6 | pepsin: Porcine pepsin A (EC 3.4.23.1); native pepsin (Np) | – | – | – | – | – | – | – | – | – | – | – | – | -0.1

From publication PMC4077824, “Conserved Prosegment Residues Stabilize a Late-Stage Folding Transition State of Pepsin Independently of Ground States” (PLoS ONE, 2014)
